Entries after “also recorded” stand apart in the source; their conditions may differ.
Experiments:
[1] = Cytotoxicity assay (MTS) on HEK293 cells; type: cell-based
Experimental: (§1) SH-SY5Y were grown in DMEM F12 (Sigma-Aldrich, Steinheim, Germany) supplemented with 15% (v/v) fetal bovine serum (Sigma-Aldrich, Steinheim, Germany), 1% (v/v) non-essential amino acids (NEAA, Sigma-Aldrich, Steinheim, Germany) and 1% (v/v) antibiotics solution Penicilin-Streptomycin (Sigma-Aldrich, Steinheim, Germany) while HEK293 were grown in EMEM (Sigma-Aldrich, Steinheim, Germany) supplemented with 10% (v/v) fetal bovine serum (Sigma-Aldrich, Steinheim, Germany), 1% (v/v) non-essential amino acids (NEAA, Sigma-Aldrich, Steinheim, Germany) and 1% (v/v) antibiotics solution Penicilin-Streptomycin (Sigma-Aldrich, Steinheim, Germany).
(§2) After cultivation, the cells were detached using 0.25% Trypsin/EDTA solution (Sigma-Aldrich, St. Louis, MO, USA), re-suspended and seeded at density of 20,000 cells/well in 96-well plates for experiments. The assay in 96-well was performed in 120 µL/well media volume. […] The procedure followed a previously described protocol and the manufacturer’s recommendations. […] Data was evaluated from at least two or three experiments (each in duplicate or triplicate) using IC50 nonlinear fit equation predefined in Prism6 software and presented as percentage of inhibition to control untreated cells.

human AChE = human AChE (Homo sapiens, UniProt P22303); assay: AChE reversible inhibition (Ellman's method, Hunter–Downs evaluation); type: biochemical; details: for Ki: human erythrocyte AChE, ATCh substrate, 0.1 M sodium phosphate buffer pH 7.4, at least three experiments, read-out: Ki ± SE AChE; for Ki (AChE)/Ki (BChE): selectivity ratio of measured Ki values
human AChE, sequence (P22303 other isoform, or with tags, fused parts or gaps): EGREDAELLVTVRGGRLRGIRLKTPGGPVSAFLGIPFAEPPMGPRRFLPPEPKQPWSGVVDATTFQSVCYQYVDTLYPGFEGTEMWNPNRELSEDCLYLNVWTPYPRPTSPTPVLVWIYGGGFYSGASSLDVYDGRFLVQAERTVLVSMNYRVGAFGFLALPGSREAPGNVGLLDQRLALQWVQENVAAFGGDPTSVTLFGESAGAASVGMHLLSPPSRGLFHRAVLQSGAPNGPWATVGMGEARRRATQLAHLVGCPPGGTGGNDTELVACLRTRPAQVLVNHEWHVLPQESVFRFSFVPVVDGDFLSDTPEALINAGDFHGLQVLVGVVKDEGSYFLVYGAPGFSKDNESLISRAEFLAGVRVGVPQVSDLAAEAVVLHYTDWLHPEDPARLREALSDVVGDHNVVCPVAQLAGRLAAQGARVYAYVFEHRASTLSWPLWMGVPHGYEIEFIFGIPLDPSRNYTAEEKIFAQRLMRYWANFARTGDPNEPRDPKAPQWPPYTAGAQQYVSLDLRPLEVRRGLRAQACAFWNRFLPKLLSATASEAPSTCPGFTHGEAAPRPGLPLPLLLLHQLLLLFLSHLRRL
Text: The determined BChE phenotype was UU (usual).

[2] = Cytotoxicity assay (MTS) on SH-SY5Y cells; type: cell-based; details: human; SH-SY5Y cells, MTS assay, 6.25–800 µM, mean of at least three experiments with standard error
Experimental: as §1, §2

human BChE = human BChE (Homo sapiens, UniProt P06276); assay: BChE reversible inhibition (Ellman's method, Hunter–Downs evaluation)
human BChE, sequence (P06276 29-602): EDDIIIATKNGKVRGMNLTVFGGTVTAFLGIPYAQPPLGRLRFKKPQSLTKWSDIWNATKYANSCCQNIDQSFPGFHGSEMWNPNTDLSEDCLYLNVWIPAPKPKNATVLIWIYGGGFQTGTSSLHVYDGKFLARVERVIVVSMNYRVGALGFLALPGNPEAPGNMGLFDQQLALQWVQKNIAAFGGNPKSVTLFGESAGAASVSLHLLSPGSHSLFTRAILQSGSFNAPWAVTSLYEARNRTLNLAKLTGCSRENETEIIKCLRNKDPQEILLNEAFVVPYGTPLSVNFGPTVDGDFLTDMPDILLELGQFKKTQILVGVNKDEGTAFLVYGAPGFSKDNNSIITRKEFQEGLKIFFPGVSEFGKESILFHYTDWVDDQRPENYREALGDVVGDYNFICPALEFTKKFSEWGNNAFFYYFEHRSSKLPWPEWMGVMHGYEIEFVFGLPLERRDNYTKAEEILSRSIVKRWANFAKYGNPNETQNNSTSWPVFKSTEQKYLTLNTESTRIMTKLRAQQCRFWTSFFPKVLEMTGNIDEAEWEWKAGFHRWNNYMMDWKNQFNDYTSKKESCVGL

HEK293 cells = assay: Cytotoxicity assay (MTS) on HEK293 cells; type: cell-based; details: for time dependence of cytotoxicity on HEK293 cells: 1-, 4- and 24-h treatment
Experimental: as §1, §2

[3] = test system: phospho-ERK1/2 (Thr202/Tyr204); assay: Intracellular signalling by Western blot: phospho-ERK1/2; type: cell-based, human; details: serum-starved HEK293 cells, 100 μM, 10 or 30 min, vs. Basal
Experimental: (§3) Intracellular signalling in the presence of the selected nicotinamide derivative was evaluated on HEK293 cells. To enhance attachment of HEK293 cells, 12-well plates were aseptically pre-coated with poly-lysin (50 µg/mL, 0.5 mL/well). After 1-h incubation, the solution was removed, surface rinsed with sterile demineralized water and allowed to dry for 1 h. HEK293 cells were seeded at a density of 300,000 cells/well in DMEM (1 g/L glucose, Gibco, Paisley, UK) supplemented with 10% (v/v) FBS (Gibco, Paisley, UK) and 1% (v/v) Pen-Strep (Gibco, Paisley, UK). The next day (after 20 h) the medium was replaced with DMEM without additions. The cells were serum-starved for 4 h. During the last 10 and 30 min, the cells were treated with 100 μM 3, 4, 5 or 8. Basal (control) samples were treated with vehicle (DMSO) for 30 min. At the end of the experiment, cells were washed with ice-cold PBS and lysed in Laemmli buffer (62.5 mM Tris-HCl (pH 6.8), 2% (w/v) sodium dodecyl sulfate (SDS), 10% (w/v) glycerol, 5% (v/v) 2-mercaptoethanol, 0.002% (w/v) bromophenol blue). The proteins were resolved with SDS-PAGE (precasted 4–12% polyacrylamide gels, Bio-Rad, CA, USA) and transferred to the PVDF membrane (Merck Millipore, Darmstadt, Germany) with wet electrotransfer using Criterion system and Bis-Tris gradient gels (Bio-rad, CA, USA). After the transfer, the membranes were stained with Ponceau S (0.1% (w/v) in 5% (v/v) acetic acid) to evaluate uniformity of sample loading and efficiency of transfer. The membranes were then blocked with 7.5% (w/v) dry milk in Tris-buffered saline with Tween 20 (TBST: 20 mM Tris, 150 mM NaCl, 0.02% (v/v) Tween 20, pH 7.5) for 1 h at room temperature. After blocking, the membranes were incubated with the primary antibody in the primary antibody buffer (20 mM Tris, 150 mM NaCl, pH 7.5, 0.1% (w/v) BSA and 0.1% (w/v) sodium azide) overnight at 4 °C and then with the secondary antibody-horseradish peroxidase conjugate (Bio-Rad, CA, USA) in TBST with 5% (w/v) dry milk for 1 h at room temperature. Finally, the membranes were incubated with enhanced chemiluminescence (ECL) reagent (Bio-Rad, CA, USA) and then immunolabelled proteins were visualized on X-ray films. Films were scanned with GS-800 Densitometer (Bio-Rad, CA, USA) and analysed with Quantity One 1-D 4.6.8 Analysis Software (Bio-Rad, CA, USA). […] Target proteins were detected using primary antibodies against phospho-Akt (Ser473, Cell Signaling #4060, Netherlands) phospho-ERK1/2 (Thr202/Tyr204, Cell Signaling #4370, Netherlands), phospho-S6 ribosomal protein (Ser235/236, Cell Signaling #2211, Netherlands), phospho-AMPK (Thr172, Cell Signaling #2535, Netherlands), phospho-acetyl-CoA carboxylase (Ser79, Cell Signaling #3661, Netherlands) and HIF-1α (Novus Biologicals NB100–449, CO, USA).

SH-SY5Y cells = assay: Cytotoxicity assay (MTS) on SH-SY5Y cells; type: cell-based; details: 1-, 4- and 24-h treatment
Experimental: as §1, §2

phospho-ACC (Ser79) = assay: Intracellular signalling by Western blot: phospho-ACC; type: cell-based, human; details: serum-starved HEK293 cells, 100 μM, 10 or 30 min, vs. Basal
Experimental: as §3

phospho-AMPK (Thr172) = assay: Intracellular signalling by Western blot: phospho-AMPK; type: cell-based, human; details: serum-starved HEK293 cells, 100 μM, 10 or 30 min, vs. Basal
Experimental: as §3

HIF-1α = assay: Intracellular signalling by Western blot: HIF-1α abundance; type: cell-based, human; details: serum-starved HEK293 cells, 100 μM, 10 or 30 min, vs. Basal
Experimental: as §3

[4] = test system: phospho-S6RP (Ser235/236); assay: Intracellular signalling by Western blot: phospho-S6RP; type: cell-based, human; details: serum-starved HEK293 cells, 100 μM, 10 or 30 min, vs. Basal
Experimental: as §3

phospho-Akt (Ser473) = assay: Intracellular signalling by Western blot: phospho-Akt; type: cell-based, human; details: serum-starved HEK293 cells, 100 μM, 10 or 30 min, vs. Basal
Experimental: as §3

BChE = details: cited from earlier work
AChE [5] = details: ratio of literature Ki values from [47], [48],[49]
AChE [6] = details: ref [47]; cited from earlier work
[7] = human, HEK293 cells, MTS assay, 6.25–800 µM, mean of at least three experiments with standard error

| SMILES | IC50 [1, 7] [µM] | Ki (human AChE) [µM] | Ki (AChE)/Ki (BChE) (human AChE) | IC50 [2] [µM] | Ki (human BChE) [µM] | time dependence of cytotoxicity on HEK293 cells (HEK293 cells) | phosphorylation of ERK1/2 (Thr202/Tyr204) [3] | time dependence of cytotoxicity on SH-SY5Y cells (SH-SY5Y cells) | phosphorylation of ACC (Ser79) (phospho-ACC (Ser79)) | phosphorylation of AMPK (Thr172) (phospho-AMPK (Thr172)) | abundance of HIF-1α (HIF-1α) | phosphorylation of S6RP (Ser235/236) [4] | phosphorylation of Akt (Ser473) (phospho-Akt (Ser473)) | IC50 (HEK293 cells; HEK293 cells, MTS assay, 6.25–800 µM, mean of at least three experiments with standard error) [µM] | preference for binding to AChE over BChE (human AChE; selectivity from Ki values) | IC50 ([1]; human; HEK293 cells, MTS assay, 6.25–800 µM, mean of at least three experiments with standard error) [µM] | Ki (BChE; ref [47]) [µM] | Ki (AChE)/Ki (BChE) (AChE [5]) | Ki (AChE [6]) [µM] | IC50 (BChE; IC50 values per footnote 3, ref [50]) [µM] |
| --- | --- | --- | --- | --- | --- | --- | --- | --- | --- | --- | --- | --- | --- | --- | --- | --- | --- | --- | --- | --- |
| NC(=O)c1ccc[n+](CC(=O)c2ccccc2)c1 [Compound 1] | ≤ 800 | 79 ± 11 | 0.34 | ≥ 800 | 232 ± 20 | – | – | – | – | – | – | – | – | – | – | – | – | – | – | – |
| NC(=O)c1ccc[n+](CC(=O)c2ccc(F)cc2)c1 [Compound 2] | ≥ 800 | 85 ± 15 | 0.14 | ≥ 800 | 595 ± 73 | – | – | – | – | – | – | – | – | – | – | – | – | – | – | – |
| NC(=O)c1ccc[n+](CC(=O)c2ccc(Cl)cc2)c1 [Compound 3] | ~85 | 33 ± 5 | 0.15 | ≤ 800 | 224 ± 23 | time-dependent mechanism | tended to transiently increase | time-dependent mechanism | did not respond | did not respond | not statistically significant | increased | suppressing | – | – | – | – | – | – | – |
| NC(=O)c1ccc[n+](CC(=O)c2ccc(Br)cc2)c1 [Compound 4] | ~85 | 11 ± 3 | 0.23 | 501 ± 2 | 47 ± 15 | time-dependent mechanism | tended to transiently increase | time-dependent mechanism | did not respond | did not respond | increased | increased | suppressing | 83 ± 1 | – | – | – | – | – | – |
| NC(=O)c1ccc[n+](CC(=O)c2ccc([N+](=O)[O-])cc2)c1 [Compound 5] | 417 ± 1 | 39 ± 5 | 0.27 | 214 ± 5 | 145 ± 24 | time-dependent mechanism | reached statistical significance; also recorded: marked increase | time-dependent mechanism | markedly increased | markedly increased | unaltered | decreased | markedly pronounced | – | – | – | – | – | – | – |
| Cc1ccc(C(=O)C[n+]2cccc(C(N)=O)c2)cc1 [Compound 6] | ≤ 800 | 3 ± 1 | 0.01 | ≥ 800 | 242 ± 22 | – | – | – | – | – | – | – | – | – | up to 80 times | – | – | – | – | – |
| COc1ccc(C(=O)C[n+]2cccc(C(N)=O)c2)cc1 [Compound 7] | ≥ 800 | 19 ± 2 | 0.08 | ≥ 800 | 216 ± 34 | – | – | – | – | – | – | – | – | – | – | – | – | – | – | – |
| NC(=O)c1ccc[n+](CC(=O)c2ccc(-c3ccccc3)cc2)c1.[Br-] [Compound 8, 1-(4′-phenylphenacyl)-3-carbamoylpyridinium bromide] | – | 4 ± 0.2 | 0.50 | 257 ± 1 | – | – | reached statistical significance; also recorded: marked increase | time-dependent mechanism | increased phosphorylation | not significantly altered | increased | unaltered | markedly pronounced | – | – | 155 ± 1 | – | – | – | – |
| COc1ccccc1C(=O)C[n+]1cccc(C(N)=O)c1 [Compound 9] | ≥ 800 | 26 ± 4 | 0.14 | ≥ 800 | 180 ± 18 | – | – | – | – | – | – | – | – | – | – | – | – | – | – | – |
| CCN(CC)C(C)CN1c2ccccc2Sc2ccccc21 (stereo not drawn) [Ethopropazine] | – | – | – | – | – | – | – | – | – | – | – | – | – | – | – | – | 0.16 | 1010 | 161 | – |

— article PMC7663184, “Vitamin B3-Based Biologically Active Compounds as Inhibitors of Human Cholinesterases” (International Journal of Molecular Sciences, 2020)
